{"source": "patent US20040265836A1", "about": "“Methods for the identification of inhibitors of C4 Long Chain Base Hydroxylase activity in plants” (priority 2003, published 2004)", "key": {"Wild-type yeast strains": {"test_system": "Wild-type yeast strains", "conditions": "cited from earlier work"}, "[1]": {"test_system": "yeast strain PGY8 (wild type)", "assay": "Syringomycin E sensitivity growth assay, wild type yeast strain PGY8", "type": "cell-based, Saccharomyces cerevisiae", "conditions": "PGY8 in rich medium; 5 μl of approximately 14-fold concentrated Syringomycin E-containing fraction dried in well of 384-well plate", "text": "(§1) Syringomycin E is not a commercially available antibiotic and was, therefore, purified from the bacterium Pseudomonas syringae pv. syringae according to the method of (Bidwai & Zhang et al., 83 Plant Physiol 39-43 (1987)). Briefly, stationary-phase liquid cultures of P. syringae pv. syringae were extracted with acidified acetone and fractionated over an Amberlite XAD-2 (Sigma) column using a linear gradient of 0.1% trifluoroacetic acid/0.1% trifluoroacetic acid in 2-propanol. Each fraction was assayed for ability to inhibit growth of wild type (PGY8) and sur2 (PGY29) yeast strains. For the assay, 10 ml fractions were collected and 50 μl of each fraction was applied a 96-well plate and dried in a vacuum concentrator. […] of rich medium containing mid-logarithmic PGY8 or PGY29 at a cell density of 10^5 cells/ml were applied to each well. Growth was monitored after 18 hours by determining the absorbance at 600 nm. Syringomycin E-containing fractions were identified as those that inhibited growth of PGY8 but not of PGY29.\n(§2) The ability of the amino-terminal truncated Arabidopsis LCBH to confer Syringomycin E sensitivity on the yeast sur2 mutant was determined as follows. […] 100 μl of yeast strains PGY8 and PGY29 in rich medium, or PGY31 in rich medium supplemented with galactose were added to each well and growth was monitored at 600 nm."}, "[2]": {"test_system": "yeast strain PGY31 (sur2 mutant expressing the truncated form of C4-LCBH)", "assay": "Syringomycin E sensitivity growth assay, sur2 mutant expressing truncated Arabidopsis LCBH (PGY31)", "type": "cell-based, Saccharomyces cerevisiae", "conditions": "PGY31 in rich medium supplemented with galactose; 5 μl of approximately 14-fold concentrated Syringomycin E-containing fraction dried in well of 384-well plate", "text": "as §1, §2"}, "sur2 mutants": {"test_system": "sur2 mutants", "conditions": "cited from earlier work"}, "[3]": {"test_system": "yeast strain PGY29 (sur2)", "assay": "Syringomycin E sensitivity growth assay, sur2 mutant strain PGY29", "type": "cell-based, Saccharomyces cerevisiae", "conditions": "PGY29 in rich medium; 5 μl of approximately 14-fold concentrated Syringomycin E-containing fraction dried in well of 384-well plate", "text": "as §1, §2"}}}
{"substance": "Syringomycin E", "values": [{"measurement": "Sensitivity to syringomycin E", "setting": "Wild-type yeast strains", "value": "sensitive"}, {"measurement": "Growth in the presence of Syringomycin E (monitored at 600 nm)", "setting": "[1]", "value": "completely inhibited"}, {"measurement": "Growth in the presence of Syringomycin E (monitored at 600 nm)", "setting": "[2]", "value": "completely inhibited"}, {"measurement": "Growth in the presence of syringomycin E", "setting": "sur2 mutants", "value": "able to grow"}, {"measurement": "Growth in the presence of Syringomycin E (monitored at 600 nm)", "setting": "[3]", "value": "able to grow"}]}
